Earlier results on 16 compounds are cited in patent US8728545B2, “Extraction method for providing an organic certifiable Stevia rebaudiana extract” (Justbio Inc., priority 2010, dated 2014).

Peptide text beside a SMILES is read from it.

For series [1] the following is noted: for Relative sweetness among steviol glycosides (in words): comparison between glycosides, Crammer and Ikan 1986, 1987; for Sweetness compared to sucrose: principal steviol glycosides found in stevia leaves.
For series [2] the following is noted: in water; Crammer and Ikan, 1986.

As to `C=C1C[C@@]23CC[C@H]4[C@@](C)(CCC[C@@]4(C)C(=O)O[C@@H]4O[C@H](CO)[C@@H](O)[C@H](O)[C@H]4O)[C@@H]2CC[C@]1(O[C@@H]1O[C@H](CO)[C@@H](O)[C@H](O[C@@H]2O[C@H](CO)[C@@H](O)[C@H](O)[C@H]2O)[C@H]1O[C@@H]1O[C@H](CO)[C@@H](O)[C@H](O)[C@H]1O)C3` [Rebaudioside A], in series [1], the “Relative sweetness among steviol glycosides (in words)” value is “the sweetest” and the “Sweetness compared to sucrose” value is recorded as 250-450 fold.

In the case of `C=C1C[C@@]23CC[C@H]4[C@@](C)(CCC[C@@]4(C)C(=O)O[C@@H]4O[C@H](CO)[C@@H](O)[C@H](O)[C@H]4O[C@@H]4O[C@H](CO)[C@@H](O)[C@H](O)[C@H]4O)[C@@H]2CC[C@]1(O[C@@H]1O[C@H](CO)[C@@H](O)[C@H](O)[C@H]1O[C@@H]1O[C@H](CO)[C@@H](O)[C@H](O)[C@H]1O)C3` [Rebaudioside E], in series [1], the “Relative sweetness among steviol glycosides (in words)” value is on record as “as sweet as stevioside” and the “Sweetness compared to sucrose” value is listed as 150-300 fold.

Regarding `C=C1C[C@@]23CC[C@H]4[C@@](C)(CCC[C@@]4(C)C(=O)O[C@@H]4O[C@H](CO)[C@@H](O)[C@H](O)[C@H]4O[C@@H]4O[C@H](CO)[C@@H](O)[C@H](O)[C@H]4O)[C@@H]2CC[C@]1(O[C@@H]1O[C@H](CO)[C@@H](O)[C@H](O[C@@H]2O[C@H](CO)[C@@H](O)[C@H](O)[C@H]2O)[C@H]1O[C@@H]1O[C@H](CO)[C@@H](O)[C@H](O)[C@H]1O)C3` [Rebaudioside D], the “Sweetness in Sucrose Equivalence (% SE)” value in series [2] is on record as 10.1 % SE. In addition, in series [1], the “Relative sweetness among steviol glycosides (in words)” value is “as sweet as rebaudioside A” and the “Sweetness compared to sucrose” value was 240-450 fold. Turning to `O=S(=O)([O-])NC1CCCCC1.[Na+]` [Cyclamate-Na], the “Sweetness in Sucrose Equivalence (% SE)” value in series [2] is listed as 15.2 % SE. In the case of `C=C1C[C@@]23CC[C@H]4[C@@](C)(CCC[C@@]4(C)C(=O)[O-])[C@@H]2CC[C@]1(O[C@@H]1O[C@@H](CO)[C@@H](O)[C@H](O)[C@@H]1O[C@@H]1O[C@@H](CO)[C@@H](O)[C@H](O)[C@@H]1O)C3.[Na+]` [Steviobioside], in series [1], the “Sweetness compared to sucrose” value is recorded as 100-125 fold.

For the compound `CC1=CC(=O)[N-]S(=O)(=O)O1.[K+]` [Acesulfame-K], the “Sweetness in Sucrose Equivalence (% SE)” value in series [2] is on record as 11.6 % SE.

Rebaudioside B: in series [1], the “Sweetness compared to sucrose” value was 300-350 fold. In the case of `COc1ccc(CCC(=O)c2c(O)cc(O[C@@H]3O[C@H](CO)[C@@H](O)[C@H](O)[C@H]3O[C@@H]3O[C@@H](C)[C@H](O)[C@@H](O)[C@H]3O)cc2O)cc1O` [Neohesperidin Didydrochalcone], the “Sweetness in Sucrose Equivalence (% SE)” value in series [2] was 9.8 % SE. `OC[C@H]1O[C@H](O[C@]2(CCl)O[C@H](CCl)[C@@H](O)[C@@H]2O)[C@H](O)[C@@H](O)[C@H]1Cl` [Sucralose]: the “Sweetness in Sucrose Equivalence (% SE)” value in series [2] was 13.0 % SE. `COC(=O)[C@H](Cc1ccccc1)NC(=O)[C@@H](N)CC(=O)O` [Aspartame] (H-Asp-Phe-OMe): in series [2], the “Sweetness in Sucrose Equivalence (% SE)” value was 16.0 % SE. As to `COC(=O)[C@H](Cc1ccccc1)NC(=O)[C@H](CC(=O)O)NCCC(C)(C)C` [Neotame], in series [2], the “Sweetness in Sucrose Equivalence (% SE)” value is listed as 15.1 % SE. For `CC1(C)[C@@H](O[C@H]2O[C@H](C(=O)O)[C@@H](O)[C@H](O)[C@H]2O[C@@H]2O[C@H](C(=O)O)[C@@H](O)[C@H](O)[C@H]2O)CC[C@]2(C)[C@H]3C(=O)C=C4[C@@H]5C[C@@](C)(C(=O)O)CC[C@]5(C)CC[C@@]4(C)[C@]3(C)CC[C@@H]12.N` [Monoammonium Glycyrhisinate], the “Sweetness in Sucrose Equivalence (% SE)” value in series [2] is on record as 7.3 % SE. With Rebaudioside C, the “Sweetness compared to sucrose” value in series [1] was 50-120 fold. As to `O=C1[N-]S(=O)(=O)c2ccccc21.[Na+]` [Saccharin-Na], the “Sweetness in Sucrose Equivalence (% SE)” value in series [2] is given as 10.1 % SE. With `C=C1C[C@@]23CC[C@H]4[C@@](C)(CCC[C@@]4(C)C(=O)O[C@@H]4O[C@H](CO)[C@@H](O)[C@H](O)[C@H]4O)[C@@H]2CC[C@]1(O[C@@H]1O[C@H](CO)[C@@H](O)[C@H](O)[C@H]1O[C@@H]1O[C@@H](C)[C@H](O)[C@@H](O)[C@H]1O)C3` [Dulcoside A], the “Sweetness compared to sucrose” value in series [1] is on record as 50-120 fold. With `C=C1C[C@@]23CC[C@H]4[C@@](C)(CCC[C@@]4(C)C(=O)O[C@@H]4O[C@H](CO)[C@@H](O)[C@H](O)[C@H]4O)[C@@H]2CC[C@]1(O[C@@H]1O[C@H](CO)[C@@H](O)[C@H](O)[C@H]1O[C@@H]1O[C@H](CO)[C@@H](O)[C@H](O)[C@H]1O)C3` [Stevioside], in series [1], the “Sweetness compared to sucrose” value is 300 fold.
